# Article PMC11858653, “Design, Synthesis and Bioactive Evaluation of Topo I/c-MYC Dual Inhibitors to Inhibit Oral Cancer via Regulating the PI3K/AKT/NF-κB Signaling Pathway” (Molecules, 2025)
# Assays:
# [1] = molecular target: T1, Topo I (Homo sapiens, UniProt P11387); test: Topo I inhibitory activity, agarose gel electrophoresis (pBR322); type: biochemical
# T1 sequence (P11387 1-765): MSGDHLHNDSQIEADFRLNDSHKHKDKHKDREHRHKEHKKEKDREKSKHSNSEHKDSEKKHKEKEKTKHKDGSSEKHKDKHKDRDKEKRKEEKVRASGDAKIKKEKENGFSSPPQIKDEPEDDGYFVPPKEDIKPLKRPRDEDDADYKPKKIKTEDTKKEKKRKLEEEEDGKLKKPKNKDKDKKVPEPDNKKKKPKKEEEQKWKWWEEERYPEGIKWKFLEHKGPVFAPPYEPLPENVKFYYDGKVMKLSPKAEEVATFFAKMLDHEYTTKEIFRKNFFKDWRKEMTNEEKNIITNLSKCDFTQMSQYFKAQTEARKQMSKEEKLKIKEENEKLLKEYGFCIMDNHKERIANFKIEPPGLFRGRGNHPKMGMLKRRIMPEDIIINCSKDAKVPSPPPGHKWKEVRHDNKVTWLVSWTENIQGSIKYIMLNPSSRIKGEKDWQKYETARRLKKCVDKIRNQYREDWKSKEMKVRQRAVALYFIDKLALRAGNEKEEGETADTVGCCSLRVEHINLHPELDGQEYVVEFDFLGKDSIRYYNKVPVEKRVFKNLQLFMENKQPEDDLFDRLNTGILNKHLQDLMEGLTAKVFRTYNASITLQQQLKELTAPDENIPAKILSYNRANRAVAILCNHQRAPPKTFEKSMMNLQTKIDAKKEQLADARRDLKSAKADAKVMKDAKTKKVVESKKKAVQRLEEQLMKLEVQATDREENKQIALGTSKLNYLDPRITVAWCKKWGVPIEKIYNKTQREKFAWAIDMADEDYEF
# Procedure: In this assay, 250 ng of pBR322 plasmid DNA, different concentrations of the compounds to be tested, 0.1% BSA 1 μL, 10× Topo I buffer, Topo I and add 1× TAE buffer were mixed to a final volume of 20 μL. The reaction was carried out for 30 min at 37 °C in a water bath. After the reaction was terminated, 4 μL of each of the 6× DNA Sampling Buffers were added to the gel. The pBR322 plasmid DNA alone was used as a negative control, and camptothecin was used as a positive control. Finally, the samples were loaded onto the gels and electrophoresed for about 1.5 h. After electrophoresis, the gel blocks were incubated in 1 mg/L ethidium bromide (EB) for 30 min and then visualized on the gel system.
# [2] = test system: LC3, p62, Beclin-1 in Cal27 cells; test: Western blot of autophagy-related markers; type: cell-based, human
# Procedure: In addition, in order to further clarify the potential mechanism of autophagy induced by compound 7be, Western blot analysis was used to detect the expression of autophagy-related markers, including microtubule-associated protein 1 light chain protein-3 protein (LC3), p62 and Beclin-1. In the process of autophagy, LC3 is essential for the maturation of the autophagosome and its fusion with the lysosome.
# After Cal27 cells had been treated with the desired concentration of each drug for 24 h, the cells were collected and the total protein was extracted. The cells were then separated on a gel of appropriate concentration and transferred to a PVDF membrane. After blocking with milk, the membrane was incubated with primary antibody at 4 °C overnight. Subsequently, the membrane was incubated with horseradish peroxidase-coupled secondary antibody for 2 h. Finally, the protein bands were used to detect the immunoreactive signal using an enhanced chemiluminescence kit.
# [3] = test system: Cal27; test: MTT antiproliferative assay, Cal27; type: cell-based, human; settings: Homo sapiens, CAL-27, 48 h, mean ± SD
# [4] = test system: Cal27 cells; test: MDC staining for autophagy; type: cell-based, human; settings: 24 h
# Procedure: In order to determine whether compound 7be induced autophagy, Cal27 cells were incubated with compound 7be at different concentrations for 24 h. MDC staining was used to detect any MDC-positive vesicles in cells of Cal27 cells by confocal microscope (Figure 13a).
# [5] = test system: Cal27 cells; test: Annexin V-FITC/PI apoptosis assay; type: cell-based, human; settings: Cal27, 24 h, increased from 5.88%; treated with 1, 2, 3 and 4 μM
# Procedure: Cal27 cells were treated with compound 7be for 24 h. Tumor cells were then digested and collected. The resulting cells were incubated with Annexin V/PI light-avoidance staining for 0.5 h. Finally, different stages of apoptosis populations of Cal27 cells were immediately analyzed by flow cytometry.
# [6] = molecular target: T1, Topo I; test: Cellular thermal shift assay (CETSA); type: cell-based; design: endogenous in cells; host or cells: Cal27; settings: 8 μM
# Procedure: For intact cell assays, Cal27 cells were treated with compound 7be (8 μM) for 3 h before collection and washing several times with PBS buffer to avoid excess compound residues. Each cell suspension was dispensed into different 0.2 mL PCR tubes and then denatured for 3 min at different temperatures on a PCR instrument, and the cells were freeze-thawed twice with liquid nitrogen. After centrifugation, the supernatant was collected, mixed with an appropriate amount of up-sampling buffer and boiled at 95 °C for 6 min. The supernatant was detected by Western blot. For cell lysate experiments, Cal27 cells were collected with RIPA lysis buffer. Then compound 7be (8 μM) was added to the supernatant and incubated at 25 °C for 2 h. After denaturation at different temperatures for 3 min, centrifugation was performed before collecting the supernatant, mixing with an appropriate amount of lysing buffer and boiling at 95 °C for 6 min, and then Western blot was performed to detect the supernatant.
smiles,measurement,setting,value
"Cc1cc(C)c2c(n1)S(=O)(=O)c1c-2nc(NCCN2CCCCC2)c2ccccc12 [7be, 7,9-Dimethyl-5-((2-(piperidin-1-yl)ethyl)amino) pyrido[3′,2′:4,5]thieno[3,2-c]isoquinoline 11,11-dioxide]",Topo I inhibitory activity (in words),[1]; 20 μM,potent Topo I activity
same,concentration at which the activity of Topo I was fully inhibited,[1]; different concentrations,20 µM
same,expression of autophagy biomarkers Beclin-1 and LC3-II,[2],upregulated
same,expression of p62,[2],decreased
same,IC50,[3],1120 ± 220 nM
same,MDC staining fluorescence,"[4]; Cal27, high concentrations (3 μM and 4 μM)",significant green fluorescence
same,MDC staining fluorescence,"[4]; Cal27, low concentrations (1 μM and 2 μM)",weak green fluorescence
same,number of apoptotic cells (early and late apoptotic cells),[5],32.8%
same,"thermal stability of Topo I protein, cell lysate","[6]; Cal27 lysate, 2 h, especially 52 to 56 °C",increased
same,"thermal stability of Topo I protein, intact cells","[6]; intact Cal27 cells, 3 h",increase in thermal stability
